# Test results as given in patent US7419997B2, “Tetrahydrocarbazole derivatives and their pharmaceutical use” (SmithKline Beecham Corporation, priority 2003, dated 2008).
# Test system: episomal HPV16 DNA in W12-20850 cells
# Assay: W-12 cellular assay (episomal HPV-16 DNA, hybrid capture)
# Format: cell-based, HPV16 (human papillomavirus)
# Conditions: Human papillomavirus 16, 96 h, four days incubation, episomal HPV-16 DNA quantified by hybrid capture, inhibition relative to untreated control cells
# Protocol: Compounds of the current invention are believed useful in the treatment and/or prophylaxis of conditions and diseases associated with HPV infection. Activity mediated through HPV was determined using the following W-12 cellular assay.
# The W12 cell line used contains HPV16 DNA and was derived from a low-grade cervical dysplasia tissue by Margaret Stanley and subsequently clonally selected by Paul Lambert (University of Wisconsin). One of these clones, W12-20850, contains 1000 copies of episomal HPV16 DNA and was used in the cell-based assay. W12-20850 cells were routinely cultured with a gamma-irradiated (6000 rads) feeder layer of 3T3 cells. Assays, however, were run in the absence of a 3T3 feeder layer. W12-20850 and 3T3 cells were routinely split when they were sub-confluent. W12-20850 were grown in W12 Medium which is constituted of 25% DMEM (Gibco BRL, Cat # 12430-047), 75% F12 Media (Gibco BRL, Cat # 11765-021) and 2.5% FBS. The additives include […] Adenine (Sigma, Cat # A-9795), 0.4 mg/ml Hydrocortisone (Calbiochem, Cat # 386698), […] Bovine Insulin (Sigma, Cat # I-1882), 8.4 ng/ml cholera toxin (Fluka, Cat # 26694) and 10 ng/ml EGF (Invitrogen, Cat # 13247-051). 3T3 cells were grown in DMEM containing 10% FBS. Cell lines were incubated at 37° C., in the presence of 5% CO2.
# For the assay, W12-20850 cells were seeded into a 96 well plate-containing compound. Plates were incubated at 37° C. in the presence of 5% CO2, for four days. On the fourth day, cells were lysed and the amount of episomal HPV-16 DNA was quantified using a non-radioactive hybrid capture technique with HPV-16 specific capture and detection probes. The percent inhibition relative to untreated control cells was then determined.
# The hybrid capture assay is run in a 96 well plate format. Hybridization plates (Nunc Maxisorb Cat # 450320) were coated with a mixture of capture probe and ReactiBind solution for at least 4 hours and then washed with 0.2)(SSC, 0.05% Tween20 (SSCT) prior to blocking with 150 μl/well of 0.2 N NaOH, 1% Igepal, 10 mg/ml hsDNA for 6-8 hours. The hybridization was carried out by mixing 271 μl of lysed cells with 45 μl of denatured detection probe in 6M guanidine isothiocyanate. To prevent evaporation, 50 μl of mineral oil was added to each well. The plate was then heated to 90° C. for 6.5 minutes and the hybridization continued at 42° C. overnight. Assay plates were washed 6 times with SSC/T. Anti-digoxigenin HRP-conjugated Ab (Boehringer Mannheim 1207733, 1:5000) was incubated in the wells for 30 min at room temperature and washed with PBS/0.05% Tween-20. SuperSignal LBA substrate (Pierce Cat # 37070) was added, and chemiluminescence was measured using Wallac 1420 Victor plate reader.
row,SMILES,IC50 [µM]
1,"Cc1ccc2[nH]c3c(c2c1)CCCC3NC(=O)Nc1ccccc1 (stereo not shown) [Example 43, N-(6-Methyl-2,3,4,9-tetrahydro-1H-carbazol-1-yl)-N′-phenylurea]",> 10
2,"O=C(Nc1ccccc1)NC1CCCc2c1[nH]c1ccc(Cl)cc21 (stereo not shown) [Example 44, N-(6-Chloro-2,3,4,9-tetrahydro-1H-carbazol-1-yl)-N′-phenylurea]",1.7
3,"Cn1cncc1C(=O)NC1CCCc2c1[nH]c1ccc(Cl)cc21 (stereo not shown) [Example 47, N-(6-Chloro-2,3,4,9-tetrahydro-1H-carbazol-1-yl)-1-methyl-1H-imidazole-5-carboxamide]",0.81
4,"Cn1nccc1C(=O)NC1CCCc2c1[nH]c1ccc(Cl)cc21 (stereo not shown) [Example 48, N-(6-Chloro-2,3,4,9-tetrahydro-1H-carbazol-1-yl)-1-methyl-1H-pyrazole-5-carboxamide]",2.24
5,"Cn1ccc(C(=O)NC2CCCc3c2[nH]c2ccc(Cl)cc32)n1 (stereo not shown) [Example 49, N-(6-Chloro-2,3,4,9-tetrahydro-1H-carbazol-1-yl)-1-methyl-1H-pyrazole-3-carboxamide]",1.65
6,"O=C(NC1CCCc2c1[nH]c1ccc(Cl)cc21)c1c[nH]cn1 (stereo not shown) [Example 50, N-(6-Chloro-2,3,4,9-tetrahydro-1H-carbazol-1-yl)-1H-imidazole-4-carboxamide]",0.44
7,"O=C(NC1CCCc2c1[nH]c1ccc(Cl)cc21)c1cc[nH]n1 (stereo not shown) [Example 51, N-(6-Chloro-2,3,4,9-tetrahydro-1H-carbazol-1-yl)-1H-pyrazole-3-carboxamide]",0.073
8,"O=C(NC1CCCc2c1[nH]c1ccc(Br)cc21)c1c(F)cccc1F (stereo not shown) [Example 52, N-(6-bromo-2,3,4,9-tetrahydro-1H-carbazol-1-yl)-2,6-difluorobenzamide]",0.045
9,"O=S(=O)(NC1CCCc2c1[nH]c1ccc(Br)cc21)c1ccccc1F (stereo not shown) [Example 53, N-(6-bromo-2,3,4,9-tetrahydro-1H-carbazol-1-yl)-2-fluorobenzenesulfonamide]",0.051
10,"O=S(=O)(NC1CCCc2c1[nH]c1ccc(Br)cc21)c1c(F)cccc1F (stereo not shown) [Example 54, N-(6-bromo-2,3,4,9-tetrahydro-1H-carbazol-1-yl)-2,6-difluorobenzenesulfonamide]",0.094

# Now from value to compound:
row,IC50 [µM],SMILES
1,0.01,"O=C(NC1CCCc2c1[nH]c1ccc(Cl)cc21)c1ccccn1 (stereo not shown) [Example 45A, N-(6-Chloro-2,3,4,9-tetrahydro-1H-carbazol-1-yl)-2-pyridinecarboxamide]"
2,0.005,"O=C(N[C@@H]1CCCc2c1[nH]c1ccc(Cl)cc21)c1ccccn1 [Example 45B, N-[(1R)-6-chloro-2,3,4,9-tetrahydro-1H-carbazol-1-yl]pyridine-2-carboxamide]"
3,6,"O=C(N[C@H]1CCCc2c1[nH]c1ccc(Cl)cc21)c1ccccn1 [Example 45C, N-[(1S)-6-chloro-2,3,4,9-tetrahydro-1H-carbazol-1-yl]pyridine-2-carboxamide]"
4,0.012,"O=C(NC1CCCc2c1[nH]c1ccc(Cl)cc21)c1ccccc1F (stereo not shown) [Example 46A, N-(6-Chloro-2,3,4,9-tetrahydro-1H-carbazol-1-yl)-2-fluorobenzamide]"
5,0.007,"O=C(N[C@@H]1CCCc2c1[nH]c1ccc(Cl)cc21)c1ccccc1F [Example 46B, N-[(1R)-6-chloro-2,3,4,9-tetrahydro-1H-carbazol-1-yl]-2-fluorobenzamide]"
6,> 3,"O=C(N[C@H]1CCCc2c1[nH]c1ccc(Cl)cc21)c1ccccc1F [Example 46C, N-[(1S)-6-chloro-2,3,4,9-tetrahydro-1H-carbazol-1-yl]-2-fluorobenzamide]"
